IC50 data for 2 molecules are collected here from US20070111989A1, “Novel diazabicyclononene derivatives and use” (priority 2004, published 2007).

This test addresses T1, human recombinant renin (Homo sapiens, UniProt P00797).
T1 sequence (P00797 67-406): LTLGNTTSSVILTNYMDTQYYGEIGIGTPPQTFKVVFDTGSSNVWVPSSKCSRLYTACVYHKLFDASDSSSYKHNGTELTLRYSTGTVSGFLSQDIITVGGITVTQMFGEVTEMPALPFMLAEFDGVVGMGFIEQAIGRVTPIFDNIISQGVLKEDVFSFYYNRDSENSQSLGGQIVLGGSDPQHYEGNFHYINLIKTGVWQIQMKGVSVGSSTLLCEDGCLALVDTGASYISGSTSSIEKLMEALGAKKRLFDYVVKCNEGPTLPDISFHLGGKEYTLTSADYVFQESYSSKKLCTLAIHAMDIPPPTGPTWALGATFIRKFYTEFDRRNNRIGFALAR
As to the kind of experiment: Inhibition of human recombinant renin, enzymatic in vitro assay with Ang I EIA detection. The class given is biochemical. To be noted: human recombinant renin 0.16 ng/mL, synthetic human angiotensin(1-14) 0.5 μM, 37° C. for 3 h; read-out: IC50 (concentration that inhibited the enzyme activity by 50%). The protocol: Inhibition of Human Recombinant Renin by the Compounds of the Invention The enzymatic in vitro assay was performed in 384-well polypropylene plates (Nunc). The assay buffer consisted of 10 mM PBS (Gibco BRL) including 1 mM EDTA and 0.1% BSA. The incubates were composed of 50 μL per well of an enzyme mix and 2.5 μL of renin inhibitors in DMSO. The enzyme mix was premixed at 4° C. and consists of the following components: • human recombinant renin (0.16 ng/mL) • synthetic human angiotensin(1-14) (0.5 μM) • hydroxyquinoline sulfate (1 mM) The mixtures were then incubated at 37° C. for 3 h. To determine the enzymatic activity and its inhibition, the accumulated Ang I was detected by an enzyme immunoassay (EIA) in 384-well plates (Nunc). 5 μL of the incubates or standards were transferred to immuno plates which were previously coated with a covalent complex of Ang I and bovine serum albumin (Ang 1-BSA). 75 μL of Ang I-antibodies in essaybuffer above including 0.01% Tween 20 were added and a primary incubation made at 4° C. overnight. The plates were washed 3 times with PBS including 0.01% Tween 20, and then incubated for 2 h at rt with an antirabbit-peroxidase coupled antibody (WA 934, Amersham).

Molecules are shown by their SMILES.

As to `COCCOc1nccc(CN(C(=O)C2=C(c3ccc(CCCOc4c(F)ccc(F)c4Cl)cc3)C[C@@H]3CNC[C@H]2N3)C2CC2)c1C` (racemic) [Example 1, (rac.)-(1R*,5S*)-7-{4-[3-(2-Chloro-3,6-difluorophenoxy)propyl]phenyl}-3,9-diazabicyclo[3.3.1]non-6-ene-6-carboxylic acid cyclopropyl-[2-(2-methoxy-ethoxy)-3-methylpyridin-4-ylmethyl]amide], the IC50 was 1 nM.
To `COCCOc1cccc(CN(C(=O)C2=C(c3ccc(CCCOc4c(F)ccc(F)c4Cl)cc3)CC3CNCC2N3)C2CC2)c1C` (racemic) [Example 2, (rac.)-(1R*,5S*)-7-{(4-[3-(2-Chloro-3,6-difluorophenoxy)propyl]phenyl}-3,9-diazabicyclo[3.3.1]non-6-ene-6-carboxylic acid cyclopropyl-[3-(2-methoxy-ethoxy)-2-methylbenzyl]amide] belongs 1.05 nM.
